9 compounds from PubChem BioAssay (NCI) can be followed below.

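In this assay, cells in 96-well plates receive the compound at five concentrations for 48 hours. Endpoints are linearly interpolated between the surrounding concentrations. At the GI50, growth is halved. TGI is the concentration that stops growth completely.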 Where only a bound is given, the exact number is not on record here.

Among the test systems are SNB-75 CNS; HCT-15 colon; BT-549 breast; RXF 393 renal; T-47D breast; HL-60(TB) leukemia; RPMI-8226 leukemia; SK-MEL-2 melanoma.
Common to all, as to test: NCI-60 cell line screen, 48 h

Take `COc1ccc(C(CC(=O)c2ccc3c(c2)OCO3)c2c(O)c3ccccc3oc2=O)cc1OC` (stereo unspecified): the TGI in the experiment with SNB-75 CNS, in the experiment with HCT-15 colon, in the experiment on BT-549 breast, with RXF 393 renal, with T-47D breast and with HL-60(TB) leukemia was above 100 µM throughout. For the same compound, the TGI in the experiment with RPMI-8226 leukemia and with SK-MEL-2 melanoma was above 100 µM throughout.
As for `CCCC/C(=C\C1=C(C)C(=O)C(OC)=C(OC)C1=O)C(=O)O`, the GI50 is 25.2 µM with SNB-75 CNS; above 100 µM in the experiment on HCT-15 colon; above 100 µM with BT-549 breast; above 100 µM in the experiment with RXF 393 renal; 33.2 µM in the experiment with T-47D breast; 66.3 µM in the experiment with HL-60(TB) leukemia. The GI50 in the experiment on RPMI-8226 leukemia and in the experiment with SK-MEL-2 melanoma was above 100 µM in each case. The TGI with SNB-75 CNS is above 100 µM; in the experiment with HCT-15 colon, above 100 µM; in the experiment with BT-549 breast, above 100 µM; with RXF 393 renal it was above 100 µM; in the experiment with T-47D breast, 94.3 µM; in the experiment with HL-60(TB) leukemia, above 100 µM. In addition, the TGI in the experiment on RPMI-8226 leukemia and with SK-MEL-2 melanoma was above 100 µM in each case.
Take `CCN(CC)CCCCCCNc1cccc2cc(Br)cnc12`: the GI50 is 2.82 µM with SNB-75 CNS; 2.95 µM with HCT-15 colon; 10.1 µM in the experiment with BT-549 breast; 4.52 µM with RXF 393 renal; 5.31 µM in the experiment on T-47D breast; 2 µM in the experiment on HL-60(TB) leukemia. The GI50 in the experiment on RPMI-8226 leukemia is 3.81 µM; with SK-MEL-2 melanoma, 5.01 µM. Further, the TGI came to 9.17 µM with SNB-75 CNS; 10.9 µM in the experiment with HCT-15 colon; 22.2 µM in the experiment on BT-549 breast; 15.1 µM in the experiment with RXF 393 renal; 20 µM with T-47D breast; 4.65 µM with HL-60(TB) leukemia. The TGI came to 15.5 µM in the experiment on RPMI-8226 leukemia and 18 µM with SK-MEL-2 melanoma.
On to `O=C(NCc1ccc(Cn2c(=O)sn(-c3ccccc3)c2=O)cc1)OCc1ccc2cccc(O)c2n1`, for which the GI50 in the experiment with SNB-75 CNS was 0.783 µM; in the experiment with HCT-15 colon, 0.298 µM; with BT-549 breast, 0.732 µM; in the experiment with RXF 393 renal, 0.457 µM; in the experiment on T-47D breast, 1.49 µM; in the experiment on HL-60(TB) leukemia it was 1.24 µM. The GI50 in the experiment with RPMI-8226 leukemia was 0.37 µM; with SK-MEL-2 melanoma it was 1.46 µM. For the same compound, the TGI is 2.08 µM in the experiment with SNB-75 CNS; 0.969 µM in the experiment on HCT-15 colon; 2.3 µM in the experiment on BT-549 breast; 1.71 µM with RXF 393 renal; 4.59 µM with T-47D breast; above 20.5 µM with HL-60(TB) leukemia. In addition, the TGI in the experiment on RPMI-8226 leukemia turned out to be 4.97 µM; with SK-MEL-2 melanoma, 3 µM.
Turning to `O=C1Nc2ccccc2/C1=C1\CCc2cc(O)ccc21`, the GI50 is 8.06 µM in the experiment with SNB-75 CNS; 5.26 µM with HCT-15 colon; 8.47 µM in the experiment on BT-549 breast; 9.85 µM with RXF 393 renal; 6.35 µM with T-47D breast; 6.65 µM in the experiment with HL-60(TB) leukemia. Further, the GI50 with RPMI-8226 leukemia is 9.71 µM; in the experiment with SK-MEL-2 melanoma, 9.99 µM. The TGI was above 25 µM in the experiment on SNB-75 CNS; above 25 µM with HCT-15 colon; above 24.2 µM with BT-549 breast; above 25 µM in the experiment on RXF 393 renal; above 25 µM in the experiment with T-47D breast; above 21.5 µM in the experiment on HL-60(TB) leukemia. Besides, the TGI in the experiment on RPMI-8226 leukemia and with SK-MEL-2 melanoma was above 25 µM in each case.
For `O=C1CCCN1c1ccccc1I(=O)=O`, the GI50 with SNB-75 CNS was above 100 µM; in the experiment on HCT-15 colon, above 100 µM; in the experiment with BT-549 breast, above 100 µM; in the experiment on RXF 393 renal, above 100 µM; with T-47D breast, 91.4 µM; in the experiment on HL-60(TB) leukemia, above 100 µM. Moreover, the GI50 with RPMI-8226 leukemia and in the experiment with SK-MEL-2 melanoma was above 100 µM each time. Also, the TGI with SNB-75 CNS, in the experiment on HCT-15 colon, with BT-549 breast, in the experiment with RXF 393 renal, with T-47D breast and in the experiment with HL-60(TB) leukemia was above 100 µM throughout. In addition, the TGI in the experiment on RPMI-8226 leukemia and in the experiment with SK-MEL-2 melanoma was above 100 µM in each case.
On to `Cc1ccc(OCCOCCOCCOCCOc2ccc(C)n(O)c2=S)c(=S)n1O`, for which the GI50 with SNB-75 CNS was 3.49 µM; with HCT-15 colon, below 0.0104 µM; in the experiment on BT-549 breast it was 0.52 µM; in the experiment with RXF 393 renal, 1.55 µM; in the experiment with T-47D breast, below 0.01 µM; with HL-60(TB) leukemia, 0.11 µM. For the same compound, the GI50 was 0.0267 µM with RPMI-8226 leukemia and 4.86 µM in the experiment on SK-MEL-2 melanoma. Moreover, the TGI is above 100 µM in the experiment on SNB-75 CNS; above 100 µM with HCT-15 colon; above 100 µM with BT-549 breast; 22.3 µM in the experiment with RXF 393 renal; above 100 µM in the experiment with T-47D breast; 5.95 µM in the experiment with HL-60(TB) leukemia. The results for the TGI in the experiment on RPMI-8226 leukemia and with SK-MEL-2 melanoma were above 64 µM and above 100 µM, respectively.
`C=CC(=O)N1CN(C(=O)C=C)CN(C(=O)C=C)C1`: the GI50 is 8.9 µM in the experiment with SNB-75 CNS; 2.01 µM in the experiment with HCT-15 colon; 6.68 µM in the experiment with BT-549 breast; 1.33 µM in the experiment with RXF 393 renal; 2.32 µM with T-47D breast; 3.37 µM in the experiment with HL-60(TB) leukemia. The values for the GI50 with RPMI-8226 leukemia and with SK-MEL-2 melanoma were 2.29 µM and 5.46 µM, respectively. For the same compound, the TGI in the experiment with SNB-75 CNS was above 100 µM; with HCT-15 colon, 4.68 µM; in the experiment with BT-549 breast, 20.7 µM; in the experiment with RXF 393 renal, 2.83 µM; in the experiment with T-47D breast, 12.8 µM; in the experiment with HL-60(TB) leukemia, 10.3 µM. The values for the TGI with RPMI-8226 leukemia and with SK-MEL-2 melanoma were 6.76 µM and 47.4 µM, respectively.
With `COc1ccc(-c2nn(-c3cccc(Cl)c3)cc2-c2cc(-c3ccccc3)[nH]c(=O)c2C#N)cc1`, the GI50 was 1.17 µM with SNB-75 CNS; 27 µM in the experiment on HCT-15 colon; 1.46 µM with BT-549 breast; 0.897 µM in the experiment with RXF 393 renal; 1.64 µM with T-47D breast; 21.9 µM in the experiment with HL-60(TB) leukemia. For the same compound, the GI50 was 45.6 µM in the experiment with RPMI-8226 leukemia and 2.13 µM in the experiment on SK-MEL-2 melanoma. In addition, the TGI with SNB-75 CNS is 3.61 µM; with HCT-15 colon, above 50 µM; in the experiment on BT-549 breast, 17.8 µM; with RXF 393 renal, 2.18 µM; with T-47D breast, 7.43 µM; with HL-60(TB) leukemia, above 50 µM. Also, the TGI is above 50 µM with RPMI-8226 leukemia and 9.35 µM in the experiment on SK-MEL-2 melanoma.
